Patent publication US20260242388A1, “NBD1 MODULATORS AND METHODS OF USING THE SAME” (Sionna Therapeutics Inc., priority 2023, published 2026)

target: T1, CFTR (Homo sapiens, UniProt P13569, DEL508-508); test: TECC24 recording of CFTR-mediated transepithelial chloride transport in ΔF508 homozygous CF-HBE cells; format: cell-based; conditions: 48 hours incubation, AUC of forskolin-stimulated IEQ, test agent AUC divided by vehicle (DMSO) AUC, primary CF-HBE cells
T1 construct: Primary human bronchial epithelial cells from a ΔF508 homozygous CF donor; host or cells: primary CF-HBE cells, ΔF508 homozygous donor
T1 sequence (P13569 with tags, fused parts or gaps DEL508-508): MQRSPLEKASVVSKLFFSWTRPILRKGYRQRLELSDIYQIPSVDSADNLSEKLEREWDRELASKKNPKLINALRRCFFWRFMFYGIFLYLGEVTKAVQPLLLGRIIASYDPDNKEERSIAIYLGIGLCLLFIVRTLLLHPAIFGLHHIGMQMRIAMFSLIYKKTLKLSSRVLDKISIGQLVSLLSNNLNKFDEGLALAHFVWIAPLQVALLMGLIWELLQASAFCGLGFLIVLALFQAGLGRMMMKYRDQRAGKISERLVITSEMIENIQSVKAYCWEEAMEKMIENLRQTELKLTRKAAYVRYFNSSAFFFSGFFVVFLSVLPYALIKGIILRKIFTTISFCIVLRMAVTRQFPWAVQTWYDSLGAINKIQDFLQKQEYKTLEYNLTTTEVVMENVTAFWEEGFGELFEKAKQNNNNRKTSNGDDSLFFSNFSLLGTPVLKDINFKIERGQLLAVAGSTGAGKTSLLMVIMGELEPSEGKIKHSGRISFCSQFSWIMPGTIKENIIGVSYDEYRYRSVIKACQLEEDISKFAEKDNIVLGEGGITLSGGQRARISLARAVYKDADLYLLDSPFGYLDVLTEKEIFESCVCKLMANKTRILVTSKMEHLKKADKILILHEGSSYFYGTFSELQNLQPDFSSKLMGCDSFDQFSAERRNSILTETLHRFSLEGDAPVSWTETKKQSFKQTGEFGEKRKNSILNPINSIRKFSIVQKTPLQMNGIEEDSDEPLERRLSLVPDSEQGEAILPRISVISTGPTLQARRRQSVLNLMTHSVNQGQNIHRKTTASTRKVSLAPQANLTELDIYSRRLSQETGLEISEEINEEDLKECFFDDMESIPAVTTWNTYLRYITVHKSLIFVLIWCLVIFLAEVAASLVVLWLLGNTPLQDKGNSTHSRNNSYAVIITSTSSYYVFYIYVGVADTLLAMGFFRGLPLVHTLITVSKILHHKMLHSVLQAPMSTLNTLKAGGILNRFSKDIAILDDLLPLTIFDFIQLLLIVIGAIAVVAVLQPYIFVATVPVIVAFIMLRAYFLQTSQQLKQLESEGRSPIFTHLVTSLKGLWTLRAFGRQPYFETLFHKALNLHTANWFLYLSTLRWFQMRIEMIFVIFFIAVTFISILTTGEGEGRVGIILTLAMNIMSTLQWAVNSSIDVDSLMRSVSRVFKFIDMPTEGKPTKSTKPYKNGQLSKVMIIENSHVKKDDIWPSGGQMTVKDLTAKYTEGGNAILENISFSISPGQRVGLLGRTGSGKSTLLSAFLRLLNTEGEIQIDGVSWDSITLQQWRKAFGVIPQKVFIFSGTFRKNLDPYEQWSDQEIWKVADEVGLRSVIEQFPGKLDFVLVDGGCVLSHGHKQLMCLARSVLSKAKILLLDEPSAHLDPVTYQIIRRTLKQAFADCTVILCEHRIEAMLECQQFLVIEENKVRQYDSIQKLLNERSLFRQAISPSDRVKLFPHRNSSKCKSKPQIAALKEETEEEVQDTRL
Procedure: Example 24. TECC24 AUC Fold Over DMSO @10 μM
The effects of a test agent on CFTR-mediated transepithelial chloride transport was measured using TECC24 recording analysis. Test agents were solubilized in DMSO. Solubilized test agents were mixed with incubation medium containing DMEM/F12, Ultroser G (2%; Crescent Chemical, catalog #67042), Hyclone Fetal Clone 11 (2%; GE Healthcare, catalog #SH30066.02), bovine brain extract (0.25%; Lonza, catalog #CC-4098), insulin (2.5 μg/mL), IL-13 (10 ng/mL), hydrocortisone (20 nM), transferrin ([…]), triiodothyronine (500 nM), ethanolamine (250 nM), epinephrine (1.5 μM), phosphoethanolamine (250 nM), and retinoic acid (10 nM). Primary human bronchial epithelial cells from a ΔF508 homozygous CF donor (CF-HBE cells; from University of North Carolina Cystic Fibrosis Tissue Procurement Center), grown on Transwell HTS 24-well cell culture inserts (Costar, catalog #3378), were exposed to test agents or controls dissolved in incubation medium. The CF-HBE cells were cultured at 36.5° C. for 48 hours before TECC24 recordings were performed in the presence or absence of test agent, a positive control or vehicle (DMSO).
Following incubation, the transwell cell culture inserts containing the test agent or control-treated CF-HBE cells were loaded onto a TECC24 apparatus (TECC v7 or MTECC v2; EP Design) to record the transepithelial voltage (VT) and resistance (TEER) using 4 AgCl electrodes per well configured in current-clamp mode. The apical and basolateral bath solutions both contained (in mM) 140 NaCl, 5 KCl, 2 CaCl2), 1 MgCl2, 10 Hepes, and 10 glucose (adjusted to pH 7.4 with NaOH). To inhibit basal Na+ absorption, the ENaC inhibitor benzamil (10 μM) was added to the bath. Then, the adenylate cyclase activator, forskolin (10 μM), was added to the bath to activate CFTR. The forskolin-stimulated Cl− transport was halted by addition of CFTR inhibitor-172 (20 μM) to the bath at the end of the experiment to confirm specificity. VT and TEER recordings were digitally acquired at routine intervals using TECC or MTECC software (EP Design). VT and TEER were transformed into equivalent transepithelial Cl− current (IEQ), and the Area Under the Curve (AUC) of the IEQ time course between forskolin and CFTR inhibitor-172 addition is generated using Excel (Microsoft). Efficacy is expressed as the ratio of the test agent AUC divided by vehicle AUC. EC50s based on AUC are generated using the non-linear regression log(agonist) vs. response function in Prism software (Graphpad) with HillSlope fixed=1.
If a test agent increased the AUC of the forskolin-stimulated IEQ relative to vehicle in CF-HBE cells, and this increase was inhibited by CFTR inhibitor-172, then the test agent was considered a CFTR corrector.

| TECC24 @ 10 uM over DMSO | Compound |
| --- | --- |
| A (AUC @10 uM >=12) | O=C(O)CCc1cccc([C@H]2NCCc3nc(-c4cc(Oc5c(F)cc6[nH]ccc6c5F)ccc4F)[nH]c32)c1F (single isomer, unassigned) [Example 3] |

system: NBD1; test: Aggregation analysis using differential static light scattering (DSLS), thermal stability of NBD1; format: binding, Human; conditions: 100 μM compound; ΔTagg = Tagg minus average Tagg of DMSO control wells; NBD1 0.2 mg/ml
Procedure: Example 23. Aggregation Analysis Using Differential Static Light Scattering (DSLS)
Purified recombinant NBD1 was produced using previously described methods (A. Schmidt, J. L. Mendoza, P. J. Thomas (2011) Biochemical and Biophysical Approaches to Probe CFTR Structure (365-376) M. D. Amaral, K. Kunzelmann (eds.), Cystic Fibrosis, Methods in Molecular Biology 741, Springer Science+Business Media). The effect of test compounds on thermal stability of NBD1 was evaluated by differential static light scattering (DSLS) using the Harbinger Stargazer-384 instrument (Epiphyte Three, Toronto, Canada). Test compounds were dissolved and diluted to desired concentrations in 100% DMSO. The compounds or DMSO controls (100 nL) were stamped into wells of a […] low volume optical plate (Corning Inc., Corning, NY) using the Echo 555 acoustic liquid handler (Labcyte Inc., San Jose, CA).
NBD1 protein was diluted to 0.2 mg/ml in S200 buffer (50 mM Tris-HCl, 150 mM NaCl, 5 mM MgCl2, 2 mM ATP, 2 mM DTT, pH7.6) containing 1% glycerol. 10 μL of protein solution was aliquoted into the 384-well plate harboring the test compounds and 10 μL mineral oil was overlayed onto the protein solution, using the epMotion robotic liquid handler (Eppendorf North America, Hauppauge, NY). After placing into the Stargazer instrument, the plate was heated at 1° C. per minute to 70° C. Images were captured from 25° C. to 70° C. every 0.5° C. At the end of the experiment run, instrument software integrated image files and analyzed data automatically. A linear regression curve was generated for each well, representing the increase in light scattering over time. A temperature of aggregation (Tagg) was calculated based on the inflection point of the curve. To better compare data across experiments the average Tagg for DMSO control wells was calculated and subtracted from values for wells containing compounds to obtain a “ΔTagg” value. These ΔTagg values reflect stabilizing efficacy of the compounds.

| Compound | DSLS NBD1/3D Human Stability delta-T (° C.) @ 100 (μM) |
| --- | --- |
| O=C(O)CCc1cccc([C@H]2NCCc3nc(-c4cc(Oc5c(F)cc6[nH]ccc6c5F)ccc4F)[nH]c32)c1F (single isomer, unassigned) [Example 3] | A (T ≥ 8° C.) |
| O=C(O)CCc1cccc([C@@H]2NCCc3nc(-c4cc(Oc5c(F)cc6[nH]ccc6c5F)ccc4F)[nH]c32)c1F (single isomer, unassigned) [Example 4] | C (≤4° C.) |
| CN1CCc2nc(-c3cc(Oc4c(F)cc5[nH]ccc5c4F)ccc3F)[nH]c2[C@H]1c1cccc(CCC(=O)O)c1F (single isomer, unassigned) [Example 5] | B (4-8° C.) |
| CN1CCc2nc(-c3cc(Oc4c(F)cc5[nH]ccc5c4F)ccc3F)[nH]c2[C@@H]1c1cccc(CCC(=O)O)c1F (single isomer, unassigned) [Example 6] | A (T ≥ 8° C.) |
| O=C(O)Cc1cccc(C2OCCc3[nH]c(-c4cc(Oc5c(F)cc6[nH]ccc6c5F)ccc4F)nc32)c1 (stereo not drawn) [Example 2, 2-(3-(2-(5-((4,6-difluoro-1H-indol-5-yl)oxy)-2-fluorophenyl)-1,4,6,7-tetrahydropyrano[3,4-d]imidazol-4-yl)phenyl)acetic acid] | B (4-8° C.) |
| CC(Cc1cccc(C2c3nc(-c4cc(Oc5c(F)cc6[nH]ccc6c5S(C)(=O)=O)ccc4F)[nH]c3CCN2C)c1F)C(=O)O (stereo not drawn) [Example 7, 3-[2-fluoro-3-[2-[2-fluoro-5-[(6-fluoro-4-methylsulfonyl-1H-indol-5-yl)oxy]phenyl]-5-methyl-1,4,6,7-tetrahydroimidazo[4,5-c]pyridin-4-yl]phenyl]-2-methyl-propanoic acid] | A (T ≥ 8° C.) |
| Cc1c(-c2cc(Oc3c(F)cc4[nH]ccc4c3F)ccc2F)nc2n1CCNC2c1cccc(CC(O)CO)c1F (stereo not drawn) [Example 9, 3-[3-[2-[5-[(4,6-difluoro-1H-indol-5-yl)oxy]-2-fluoro-phenyl]-3-methyl-5,6,7,8-tetrahydroimidazo[1,2-a]pyrazin-8-yl]-2-fluoro-phenyl]propane-1,2-diol] | B (4-8° C.) |
| CCOC(=O)C(C)Cc1cccc(C2NCCn3c2nc(-c2cc(Oc4c(F)cc5[nH]ccc5c4F)ccc2F)c3C)c1F (stereo not drawn) [Example 10, ethyl 3-[3-[2-[5-[(4,6-difluoro-1H-indol-5-yl)oxy]-2-fluoro-phenyl]-3-methyl-5,6,7,8-tetrahydroimidazo[1,2-a]pyrazin-8-yl]-2-fluoro-phenyl]-2-methyl-propanoate] | C (≤4° C.) |
| CCOC(=O)CCc1cccc(C2c3nc(-c4cc(Oc5c(F)cc6[nH]ccc6c5S(C)(=O)=O)ccc4F)[nH]c3CCN2C)c1F (stereo not drawn) [Example 13, ethyl 3-[2-fluoro-3-[2-[2-fluoro-5-[(6-fluoro-4-methylsulfonyl-1H-indol-5-yl)oxy]phenyl]-5-methyl-1,4,6,7-tetrahydroimidazo[4,5-c]pyridin-4-yl]phenyl]propanoate] | B (4-8° C.) |
| CN1CCc2[nH]c(-c3cc(Oc4c(F)cc5[nH]ccc5c4S(C)(=O)=O)ccc3F)nc2C1c1cccc(CCC(=O)O)c1F (stereo not drawn) [Example 14, 3-[2-fluoro-3-[2-[2-fluoro-5-[(6-fluoro-4-methylsulfonyl-1H-indol-5-yl)oxy]phenyl]-5-methyl-1,4,6,7-tetrahydroimidazo[4,5-c]pyridin-4-yl]phenyl]propanoic acid] | A (T ≥ 8° C.) |
| CCOC(=O)CCc1cccc(C2c3nc(-c4cc(Oc5c(F)cc6[nH]ccc6c5S(C)(=O)=O)ccc4F)[nH]c3CCN2CC(F)F)c1F (stereo not drawn) [Example 15, ethyl 3-[3-[5-(2,2-difluoroethyl)-2-[2-fluoro-5-[(6-fluoro-4-methylsulfonyl-1H-indol-5-yl)oxy]phenyl]-1,4,6,7-tetrahydroimidazo[4,5-c]pyridin-4-yl]-2-fluoro-phenyl]propanoate] | C (≤4° C.) |
| CS(=O)(=O)c1c(Oc2ccc(F)c(-c3nc4c([nH]3)CCN(CC(F)F)C4c3cccc(CCC(=O)O)c3F)c2)c(F)cc2[nH]ccc12 (stereo not drawn) [Example 16, 3-[3-[5-(2,2-difluoroethyl)-2-[2-fluoro-5-[(6-fluoro-4-methylsulfonyl-1H-indol-5-yl)oxy]phenyl]-1,4,6,7-tetrahydroimidazo[4,5-c]pyridin-4-yl]-2-fluoro-phenyl]propanoic acid] | A (T ≥ 8° C.) |
| CNC(=O)CCc1cccc(C2c3nc(-c4cc(Oc5c(F)cc6[nH]ccc6c5S(C)(=O)=O)ccc4F)[nH]c3CCN2CC(F)F)c1F (stereo not drawn) [Example 17, 3-[3-[5-(2,2-difluoroethyl)-2-[2-fluoro-5-[(6-fluoro-4-methylsulfonyl-1H-indol-5-yl)oxy]phenyl]-1,4,6,7-tetrahydroimidazo[4,5-c]pyridin-4-yl]-2-fluoro-phenyl]-N-methyl-propanamide] | B (4-8° C.) |
| CCOC(=O)CCc1ccc(C2c3nc(-c4cc(Oc5c(F)cc6[nH]ccc6c5S(C)(=O)=O)ccc4F)[nH]c3CCN2C)s1 (stereo not drawn) [Example 18, ethyl 3-[5-[2-[2-fluoro-5-[(6-fluoro-4-methylsulfonyl-1H-indol-5-yl)oxy]phenyl]-5-methyl-1,4,6,7-tetrahydroimidazo[4,5-c]pyridin-4-yl]-2-thienyl]propanoate] | B (4-8° C.) |
| CN1CCc2[nH]c(-c3cc(Oc4c(F)cc5[nH]ccc5c4S(C)(=O)=O)ccc3F)nc2C1c1ccc(CCC(=O)O)s1 (stereo not drawn) [Example 19, 3-[5-[2-[2-fluoro-5-[(6-fluoro-4-methylsulfonyl-1H-indol-5-yl)oxy]phenyl]-5-methyl-1,4,6,7-tetrahydroimidazo[4,5-c]pyridin-4-yl]-2-thienyl]propanoic acid] | A (T ≥ 8° C.) |
| CN1CCc2[nH]c(-c3cc(Oc4c(F)cc5[nH]ccc5c4F)ccc3F)nc2C1c1cccc(CC(O)CO)c1F (stereo not drawn) [Example 20, 3-[3-[2-[5-[(4,6-difluoro-1H-indol-5-yl)oxy]-2-fluoro-phenyl]-5-methyl-1,4,6,7-tetrahydroimidazo[4,5-c]pyridin-4-yl]-2-fluoro-phenyl]propane-1,2-diol] | B (4-8° C.) |
| CN1CCc2[nH]c(-c3cc(Oc4c(F)cc5[nH]ccc5c4S(C)(=O)=O)ccc3F)nc2C1c1cccc(CC(O)CO)c1F (stereo not drawn) [Example 21, 3-[2-fluoro-3-[2-[2-fluoro-5-[(6-fluoro-4-methylsulfonyl-1H-indol-5-yl)oxy]phenyl]-5-methyl-1,4,6,7-tetrahydroimidazo[4,5-c]pyridin-4-yl]phenyl]propane-1,2-diol] | A (T ≥ 8° C.) |
